Test results as given in US6229055A, “Synthesis of fluorinated xanthene derivatives” (Molecular Probes, Inc., priority 2000, dated 2001).

Assays:
Solubility in water = format: physicochemical
From the text: (§1) In another substrate embodiment, the dye compounds are fluorinated dyes for which R^11 is H, that are substrates for oxidative enzymes and other reactive oxidizing agents, particularly for peroxidase enzymes. […] Unlike their non-fluorinated analogs, fluorinated dihydrofluorescein and dihydrorhodol, are stable in aqueous solutions without the use of blocking groups on the hydroxyl or amine functions that typically reduce aqueous solubility. For example, Compound 84 (4,5,6,7-tetrafluorodihydrofluorescein, Example 85) is soluble in water to at least 2 mM, while existing diacetate fluorogenic peroxidase substrates are typically soluble only in the single-digit μM concentration range.

[1] = Stability toward hydrogen peroxide without peroxidase; format: physicochemical; details: absence of horseradish peroxidase, 1 mM substrate, OPD buffer pH 5.5
From the text: as §1
(§2) A 2 mM solution (0.5 mL) of TFDHF is prepared in water. OPD buffer (0.5M Phosphate-citrate buffer) without hydrogen peroxide (pH 5.5, 0.5 mL) is added, resulting in a 1 mM concentration of substrate. Minor background fluorescence, indicating the presence of some contaminating oxidized dye, serves to provide a fluorescence signal at time 0. […] After incubation at room temperature in darkness for 25 minutes, the reaction solution is diluted 1:20 into potassium phosphate buffer at pH 8, and fluorescence emission spectra are recorded.

[2] = biological target: T1, Horseradish Peroxidase (HRP) (Armoracia rusticana, UniProt P00433); experiment: Detection of horseradish peroxidase activity in vitro; format: biochemical; details: 1 mM substrate, OPD buffer with hydrogen peroxide, HRP 1 μL, 10^-4 Units
T1 sequence (P00433 31-353): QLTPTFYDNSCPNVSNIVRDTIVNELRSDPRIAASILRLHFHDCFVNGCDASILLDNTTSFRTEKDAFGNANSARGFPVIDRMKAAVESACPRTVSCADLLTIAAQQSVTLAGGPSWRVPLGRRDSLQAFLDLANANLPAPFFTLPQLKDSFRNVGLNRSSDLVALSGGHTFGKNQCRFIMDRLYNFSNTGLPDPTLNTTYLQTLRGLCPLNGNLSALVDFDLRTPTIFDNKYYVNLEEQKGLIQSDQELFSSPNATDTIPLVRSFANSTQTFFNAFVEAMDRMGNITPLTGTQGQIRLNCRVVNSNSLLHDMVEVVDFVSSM
Procedure: as §2, with “OPD buffer (0.5M Phosphate-citrate buffer) without hydrogen peroxide (pH 5.5, 0.5 mL) is added, resulting in a 1 mM concentration of substrate.” left out

[3] = Fluorescence response of heavy metal ion indicator; format: binding; details: 1 micromolar compound, 5 micromolar Cu(I), 5 mM MOPS buffer pH 7.2
Procedure: The tetramethyl ester intermediate is then dissolved in 15 mL 1,4-dioxane and concentrated ammonium hydroxide (0.8 mL) is added in one portion. The reaction mixture is centrifuged and the orange pellet is dissolved in 5 mL pure water, then applied to a column of lipophilic SEPHADEX […] resin and eluted with pure water. Pure column fractions are combined, frozen and lyophilized to give phenanthroline conjugate, dipotassium salt (Compound 106) as an orange powder. κ=54,479 cm^-1 M^-1 in 10 mM EGTA, 100 mM KCl, 10 mM MOPS buffer at pH 7.20.

| Structure (SMILES) | soluble in water (Solubility in water) | reaction with hydrogen peroxide alone [1] | reaction with hydrogen peroxide alone ([1]; listed as TFDHF) | fluorescence production on addition of HRP [2] | decrease in emission intensity at 523 nm [3] [fold] |
| --- | --- | --- | --- | --- | --- |
| O=C(O)c1c(F)c(F)c(F)c(F)c1C1c2ccc(O)cc2Oc2cc(O)ccc21 [Compound 84, 4,5,6,7-tetrafluorodihydrofluorescein] | at least 2 mM | stable toward reaction of hydrogen peroxide during the period of analysis | no detectable fluorescence increase | immediate production of bright yellow fluorescence |  |
| O=C(Nc1cc2cccnc2c2ncccc12)c1ccc2c(c1)C(=O)OC21c2cc(F)c(O)cc2Oc2cc(O)c(F)cc21 [Compound 106] |  |  |  |  | 5 |
